Organism: Rattus norvegicus
Assay: DrugMatrix - Regimen: Daily Repeat
Format: toxicity, organism-based, Sprague-Dawley
Parameters: regimen Daily Repeat, gender Male, age 6-8 weeks
Settings: in vivo, sc, 1.75 mg/kg, route mini-PUMP - SUBCUTANEOUS, dose level High, vehicle 100 % SALINE; for ABSOLUTE BASOPHIL / ABSOLUTE EOSINOPHIL / ABSOLUTE LYMPHOCYTE / ABSOLUTE MONOCYTE / ABSOLUTE SEGMENTED NEUTROPHIL / BASOPHIL / EOSINOPHIL / ERYTHROCYTE COUNT / HEMATOCRIT / HEMOGLOBIN / LEUKOCYTE COUNT / LYMPHOCYTE / MEAN CORPUSCULAR HEMOGLOBIN / MEAN CORPUSCULAR HEMOGLOBIN CONCENTRATION / MEAN CORPUSCULAR VOLUME / MONOCYTE / NEUTROPHIL / NUCLEATED RED BLOOD CELLS / PLATELET COUNT: tissue Blood; for ALANINE AMINOTRANSFERASE / ALBUMIN / ALKALINE PHOSPHATASE / ASPARTATE AMINOTRANSFERASE / BLOOD UREA NITROGEN / CARBON DIOXIDE / CHLORIDE / CHOLESTEROL / CREATININE / GLUCOSE / LACTATE DEHYDROGENASE / LIPASE / PHOSPHORUS / POTASSIUM / SODIUM / TOTAL BILIRUBIN / TOTAL PROTEIN / URIC ACID: tissue Plasma

NC[C@H](O)c1ccc(O)c(O)c1 [NOREPINEPHRINE]
ABSOLUTE BASOPHIL (72 h, time 3 day): 0 CELLS/uL
ABSOLUTE EOSINOPHIL (72 h, time 3 day): 0 CELLS/uL
ABSOLUTE LYMPHOCYTE (72 h, time 3 day): 13450.33 CELLS/uL
ABSOLUTE MONOCYTE (72 h, time 3 day): 275.33 CELLS/uL
ABSOLUTE SEGMENTED NEUTROPHIL (72 h, time 3 day): 1174.33 CELLS/uL
BASOPHIL (72 h, time 3 day): 0%
EOSINOPHIL (72 h, time 3 day): 0%
ERYTHROCYTE COUNT (72 h, time 3 day): 6.14 x10E6/uL
HEMATOCRIT (72 h, time 3 day): 36.87%
HEMOGLOBIN (72 h, time 3 day): 13.53 G/DL
LEUKOCYTE COUNT (72 h, time 3 day): 14.9 x10E3/uL
LYMPHOCYTE (72 h, time 3 day): 90.67%
MEAN CORPUSCULAR HEMOGLOBIN (72 h, time 3 day): 22.03 pg
MEAN CORPUSCULAR HEMOGLOBIN CONCENTRATION (72 h, time 3 day): 36.73 G/DL
MEAN CORPUSCULAR VOLUME (72 h, time 3 day): 60 fL
MONOCYTE (72 h, time 3 day): 2%
NEUTROPHIL (72 h, time 3 day): 7.33%
NUCLEATED RED BLOOD CELLS (72 h, time 3 day): 0.33 /100WBC
PLATELET COUNT (72 h, time 3 day): 1242.33 x10E3/uL
ALANINE AMINOTRANSFERASE (72 h, time 3 day): 42.67 u/L
ALBUMIN (72 h, time 3 day): 4.07 G/DL
ALKALINE PHOSPHATASE (72 h, time 3 day): 322.67 u/L
ASPARTATE AMINOTRANSFERASE (72 h, time 3 day): 89.33 u/L
BLOOD UREA NITROGEN (72 h, time 3 day): 16.67 mg/dL
CARBON DIOXIDE (72 h, time 3 day): 25 mmol/L
CHLORIDE (72 h, time 3 day): 104.33 MEQ/L
CHOLESTEROL (72 h, time 3 day): 72.67 mg/dL
CREATININE (72 h, time 3 day): 0.21 mg/dL
GLUCOSE (72 h, time 3 day): 169 mg/dL
LACTATE DEHYDROGENASE (72 h, time 3 day): 701 u/L
LIPASE (72 h, time 3 day): 9.67 u/L
PHOSPHORUS (72 h, time 3 day): 11.73 mg/dL
POTASSIUM (72 h, time 3 day): 6.75 MEQ/L
SODIUM (72 h, time 3 day): 150.2 MEQ/L
TOTAL BILIRUBIN (72 h, time 3 day): 0.17 mg/dL
TOTAL PROTEIN (72 h, time 3 day): 6.3 G/DL
URIC ACID (72 h, time 3 day): 1.8 mg/dL
ABSOLUTE BASOPHIL (120 h, time 5 day): 0 CELLS/uL
ABSOLUTE EOSINOPHIL (120 h, time 5 day): 0 CELLS/uL
ABSOLUTE LYMPHOCYTE (120 h, time 5 day): 12875 CELLS/uL
ABSOLUTE MONOCYTE (120 h, time 5 day): 478 CELLS/uL
ABSOLUTE SEGMENTED NEUTROPHIL (120 h, time 5 day): 2047 CELLS/uL
BASOPHIL (120 h, time 5 day): 0%
EOSINOPHIL (120 h, time 5 day): 0%
ERYTHROCYTE COUNT (120 h, time 5 day): 6.43 x10E6/uL
HEMATOCRIT (120 h, time 5 day): 38.73%
HEMOGLOBIN (120 h, time 5 day): 14.3 G/DL
LEUKOCYTE COUNT (120 h, time 5 day): 15.4 x10E3/uL
LYMPHOCYTE (120 h, time 5 day): 84.33%
MEAN CORPUSCULAR HEMOGLOBIN (120 h, time 5 day): 22.23 pg
MEAN CORPUSCULAR HEMOGLOBIN CONCENTRATION (120 h, time 5 day): 36.93 G/DL
MEAN CORPUSCULAR VOLUME (120 h, time 5 day): 60.27 fL
MONOCYTE (120 h, time 5 day): 3%
NEUTROPHIL (120 h, time 5 day): 12.67%
NUCLEATED RED BLOOD CELLS (120 h, time 5 day): 0 /100WBC
PLATELET COUNT (120 h, time 5 day): 1321.67 x10E3/uL
ALANINE AMINOTRANSFERASE (120 h, time 5 day): 45 u/L
ALBUMIN (120 h, time 5 day): 4.47 G/DL
ALKALINE PHOSPHATASE (120 h, time 5 day): 289.33 u/L
ASPARTATE AMINOTRANSFERASE (120 h, time 5 day): 74.33 u/L
BLOOD UREA NITROGEN (120 h, time 5 day): 14.67 mg/dL
CARBON DIOXIDE (120 h, time 5 day): 28 mmol/L
CHLORIDE (120 h, time 5 day): 103 MEQ/L
CHOLESTEROL (120 h, time 5 day): 70.67 mg/dL
CREATININE (120 h, time 5 day): 0.13 mg/dL
GLUCOSE (120 h, time 5 day): 203 mg/dL
LACTATE DEHYDROGENASE (120 h, time 5 day): 122 u/L
LIPASE (120 h, time 5 day): 9.33 u/L
PHOSPHORUS (120 h, time 5 day): 12.63 mg/dL
POTASSIUM (120 h, time 5 day): 6.59 MEQ/L
SODIUM (120 h, time 5 day): 150.5 MEQ/L
TOTAL BILIRUBIN (120 h, time 5 day): 0.17 mg/dL
TOTAL PROTEIN (120 h, time 5 day): 6.8 G/DL
URIC ACID (120 h, time 5 day): 2.17 mg/dL
ABSOLUTE BASOPHIL ([…], time 14 day): 0 CELLS/uL
ABSOLUTE EOSINOPHIL ([…], time 14 day): 45.6 CELLS/uL
ABSOLUTE LYMPHOCYTE ([…], time 14 day): 15398.2 CELLS/uL
ABSOLUTE MONOCYTE ([…], time 14 day): 562 CELLS/uL
ABSOLUTE SEGMENTED NEUTROPHIL ([…], time 14 day): 3234.2 CELLS/uL
BASOPHIL ([…], time 14 day): 0%
EOSINOPHIL ([…], time 14 day): 0.2%
ERYTHROCYTE COUNT ([…], time 14 day): 6.59 x10E6/uL
HEMATOCRIT ([…], time 14 day): 38.5%
HEMOGLOBIN ([…], time 14 day): 14.08 G/DL
LEUKOCYTE COUNT ([…], time 14 day): 19.24 x10E3/uL
LYMPHOCYTE ([…], time 14 day): 80.6%
MEAN CORPUSCULAR HEMOGLOBIN ([…], time 14 day): 21.36 pg
MEAN CORPUSCULAR HEMOGLOBIN CONCENTRATION ([…], time 14 day): 36.56 G/DL
MEAN CORPUSCULAR VOLUME ([…], time 14 day): 58.42 fL
MONOCYTE ([…], time 14 day): 3%
NEUTROPHIL ([…], time 14 day): 16.2%
NUCLEATED RED BLOOD CELLS ([…], time 14 day): 0 /100WBC
PLATELET COUNT ([…], time 14 day): 980.2 x10E3/uL
ALANINE AMINOTRANSFERASE ([…], time 14 day): 57.6 u/L
ALBUMIN ([…], time 14 day): 4.18 G/DL
ALKALINE PHOSPHATASE ([…], time 14 day): 349 u/L
ASPARTATE AMINOTRANSFERASE ([…], time 14 day): 86 u/L
BLOOD UREA NITROGEN ([…], time 14 day): 15.8 mg/dL
CARBON DIOXIDE ([…], time 14 day): 30 mmol/L
CHLORIDE ([…], time 14 day): 102.6 MEQ/L
CHOLESTEROL ([…], time 14 day): 72.4 mg/dL
CREATININE ([…], time 14 day): 0.22 mg/dL
GLUCOSE ([…], time 14 day): 187.4 mg/dL
LACTATE DEHYDROGENASE ([…], time 14 day): 105.4 u/L
LIPASE ([…], time 14 day): 8.8 u/L
PHOSPHORUS ([…], time 14 day): 13.42 mg/dL
POTASSIUM ([…], time 14 day): 7.42 MEQ/L
SODIUM ([…], time 14 day): 147.96 MEQ/L
TOTAL BILIRUBIN ([…], time 14 day): 0.16 mg/dL
TOTAL PROTEIN ([…], time 14 day): 6.34 G/DL
URIC ACID ([…], time 14 day): 2.42 mg/dL

Reference: ChEMBL document CHEMBL3885881, “DrugMatrix”
